Earlier results as cited in patent publication US20250195565A1 (Fempharma Europe, LLC, priority 2018, published 2025).

Tested on: human vaginal smooth muscle cells
Details: zinc at a tissue level of 20 μM

**Q.** With `[Zn]` [zinc] as the compound, how does the “effect on production of extracellular components (collagen, elastin) by the muscle cells” value read?
**A.** Its value is “beneficial effect”.
